This note sets out measurements from patent publication US9296787B2, “Antitumor peptide and use thereof” (priority 2011, dated 2016).

Assay type in all cases: cell-based
Test [1] relates to human alveolar basal epithelial adenocarcinoma cells, A549. The settings on record: for A450(-A620) After 24 hers: A549, peptide 50 μM, WST-8 absorbance after 24 hours; for antitumor activity (tumor cell proliferation-inhibiting activity), in words: A549, 50 μM, 24 hours, summary of Table 5. The procedure:
(§1) As the tumor cells tested, a commercial mouse neuroblastoma cell line (N1E-115) was used. The cell line was cultured beforehand in a DMEM medium (i.e. Dulbecco MEM medium (DMEM medium, a Gibco product) containing 10% fetal bovine serum (FBS, a Gibco product), 2 mM of L-glutamine, 50 unit/mL of penicillin, and 50 μg/mL of streptomycin), and the number of cells per well in a 96-well plate was adjusted to approximately 5×10^3. The volume of the medium for this was 100 μL per well.
(§2) Subsequently, the stock solution of each sample peptide shown in Table 3 was added to each well to a peptide concentration in the well of 50 μM or 100 μM.
(§3) After the sample peptides were added as described above, the 96-well plate was placed in a CO2 incubator and cultured without agitation at 37° C. under 5% CO2. At the time of the peptide addition (at the start of treatment) and at 6 hours or 24 hours from the peptide addition and the start of incubation, the viability status of the cultured cells tested was analyzed with a commercial colorimetric assay kit. In particular, to each cell-culturing well, “water-soluble tetrazolium salt (WST-8)” was added as a colorimetric reagent; after two hours of incubation following the addition, the cell culture medium supplied with the colorimetric reagent was collected; and the level of inhibition of cell proliferation was evaluated by colorimetry, measuring the absorbance at a wavelength of 450 nm (values corrected with the absorbance at a wavelength of 620 nm, A450-A620) based on reduction of tetrazolium salt. Based on the absorbance at the time of the sample peptide addition (at the start of treatment), the percent decrease in the absorbance after 6 hours or 24 hours was determined as the cell proliferation inhibition rate (%).
Cells forming a […] (human alveolar basal epithelial adenocarcinoma cells, A549) were substituted for the tumor cells tested and the same test as Example 2 described above was carried out. In the present example, the peptides of Samples 1 to 13, 15 to 22, 24, 29, 35 and 40 were used.

The test system of test [2] is mouse neuroblastoma cell line (N1E-115). The settings on record: for A450(-A620) After 24 hers: WST-8 absorbance after 24 hours; for A450(-A620) After 6 hers: WST-8 absorbance after 6 hours. The procedure: Some of the sample peptides obtained in Example 1 were tested for antitumor activity against target cultured tumor cells. Details of the assay are as described below.
as §1, §2, §3
(In general: Tetrazolium dyes change colour on reduction, which living cells bring about.)

The next test relates to HeLa cells (HeLa S3). The settings on record: WST-8 absorbance after 24 hours. The procedure: as §1, §2, §3
HeLa cells (HeLa S3) were substituted for the tumor cells tested and the same test as Example 2 described above was carried out. In the present example, the peptides of Samples 1 to 7, 9, 10, 13, 16, 21 and 35 were used.

Read-outs that look alike come from different tables or passages of the source. Positions of bridges follow the written chain, without caps; N, C: chain ends. Residues, ends and D or L forms follow the SMILES beside them. No end group written: not given here.

QSPVNHHYHYHI [Sample 17, QSPVNHHYHYHI]: the “A450(-A620) After 24 hers” value is on record as 1.9428 in test [1]; 0.6019 in test [2] (N1E-115, peptide 50 μM); 0.5818 in test [2] (N1E-115, peptide 100 μM).

With `CC(C)C[C@H](NC(=O)[C@@H](NC(=O)[C@H](CCCNC(=N)N)NC(=O)[C@H](CCCCN)NC(=O)[C@H](CCCCN)NC(=O)[C@@H]1CSSC[C@H](N)C(=O)N[C@@H](CC(C)C)C(=O)N[C@@H](C)C(=O)N2CCC[C@H]2C(=O)N[C@@H](CO)C(=O)N2CCC[C@H]2C(=O)N[C@@H](CO)C(=O)N[C@@H](CCCCN)C(=O)N1)[C@@H](C)O)C(=O)N[C@@H](CCCNC(=N)N)C(=O)N[C@@H](CCCCN)C(=O)N[C@@H](CC(N)=O)C(=O)N[C@@H](CC(=O)O)C(=O)N[C@@H](CCCNC(=N)N)C(=O)N[C@@H](CCCCN)C(=O)N[C@@H](CCCCN)C(=O)N[C@@H](CCCNC(=N)N)C(=O)O` [Sample 24] (H-CLAPSPSKCKKRTLRKNDRKKR-OH; disulfide 1-9; N-terminus and C-terminus assumed), the “antitumor activity (tumor cell proliferation-inhibiting activity), in words” value is reported as “high antitumor activity” in test [1] and “high antitumor activity” in test [2] (N1E-115, 50 or 100 μM, summary of Table 3). In addition, the “A450(-A620) After 24 hers” value in test [1] was determined as 1.5820; in test [2] (N1E-115, peptide 50 μM), 0.3492; in test [2] (N1E-115, peptide 100 μM), 0.3198.

Consider `CC(C)C[C@@H]1NC(=O)[C@H]([C@@H](C)O)NC(=O)[C@@H](N)CSSC[C@@H](C(=O)O)NC(=O)[C@H](CC(N)=O)NC(=O)[C@H](CO)NC(=O)[C@H](Cc2c[nH]cn2)NC(=O)[C@H](CO)NC(=O)[C@H](CC(N)=O)NC1=O` [Sample 6, CTLNSHSNC] (H-CTLNSHSNC-OH; disulfide 1-9; N-terminus and C-terminus assumed), for which the “A450(-A620) After 24 hers” value amounted to 0.1174 in the test on HeLa cells (HeLa S3) (HeLa S3, peptide 50 μM); 0.0906 in the test on HeLa cells (HeLa S3) (HeLa S3, peptide 100 μM); 1.4667 in test [1]; 0.3083 in test [2] (N1E-115, peptide 50 μM); 0.2830 in test [2] (N1E-115, peptide 100 μM). The “antitumor activity (tumor cell proliferation-inhibiting activity), in words” value in test [1] is “high antitumor activity”. Further, the “A450(-A620) After 6 hers” value came out at 0.1633 in test [2] (N1E-115, peptide 50 μM) and 0.1345 in test [2] (N1E-115, peptide 100 μM).

In the case of `C[C@@H]1NC(=O)[C@H](Cc2c[nH]c3ccccc23)NC(=O)[C@H](Cc2c[nH]cn2)NC(=O)CNC(=O)[C@H]([C@@H](C)O)NC(=O)[C@@H](N)CSSC[C@@H](C(=O)O)NC(=O)[C@H](CCC(=O)O)NC(=O)[C@H](CO)NC1=O` [Sample 10, CTGHWASEC] (H-CTGHWASEC-OH; disulfide 1-9; N-terminus and C-terminus assumed), the “A450(-A620) After 24 hers” value in the test on HeLa cells (HeLa S3) (HeLa S3, peptide 50 μM) is 0.0909; with HeLa cells (HeLa S3) (HeLa S3, peptide 100 μM), 0.0915; in test [1] it was 1.7472.

With NMTTYPMHNNTV [Sample 18, NMTTYPMHNNTV], the “A450(-A620) After 24 hers” value in test [1] was 1.6767; in test [2] (N1E-115, peptide 50 μM) it was 0.6054; in test [2] (N1E-115, peptide 100 μM) it was 0.5999.

Regarding `CC[C@H](C)[C@@H]1NC(=O)[C@H](CCC(=O)O)NC(=O)[C@@H](N)CSSC[C@@H](C(=O)N[C@@H](CCCCN)C(=O)N[C@@H](CCCCN)C(=O)N[C@@H](CCCNC(=N)N)C(=O)N[C@H](C(=O)N[C@@H](CC(C)C)C(=O)N[C@@H](CCCNC(=N)N)C(=O)N[C@@H](CCCCN)C(=O)N[C@@H](CC(N)=O)C(=O)N[C@@H](CC(=O)O)C(=O)N[C@@H](CCCNC(=N)N)C(=O)N[C@@H](CCCCN)C(=O)N[C@@H](CCCCN)C(=O)N[C@@H](CCCNC(=N)N)C(=O)O)[C@@H](C)O)NC(=O)[C@H]([C@@H](C)O)NC(=O)[C@H](CCCNC(=N)N)NC(=O)[C@H](CCCCN)NC(=O)[C@H](C)NC(=O)[C@H](CO)NC1=O` [Sample 29] (H-CEISAKRTCKKRTLRKNDRKKR-OH; disulfide 1-9; N-terminus and C-terminus assumed), in test [1], the “antitumor activity (tumor cell proliferation-inhibiting activity), in words” value is listed as “high antitumor activity” and the “A450(-A620) After 24 hers” value was 1.6577.

For `N=C(N)NCCC[C@@H]1NC(=O)[C@H](Cc2c[nH]cn2)NC(=O)CNC(=O)[C@@H](N)CSSC[C@@H](C(=O)O)NC(=O)[C@H](Cc2ccc(O)cc2)NC(=O)[C@H](CCC(N)=O)NC(=O)[C@H](Cc2ccc(O)cc2)NC(=O)[C@@H]2CCCN2C1=O` [Sample 4, CGHRPYQYC] (H-CGHRPYQYC-OH; disulfide 1-9; N-terminus and C-terminus assumed), the “A450(-A620) After 24 hers” value in the test on HeLa cells (HeLa S3) (HeLa S3, peptide 50 μM) was determined as 0.0955; in the test with HeLa cells (HeLa S3) (HeLa S3, peptide 100 μM), 0.0937; in test [1], 1.7663.

On to GAVTYSRISGQY [Sample 22, GAVTYSRISGQY], for which the “A450(-A620) After 24 hers” value in test [1] was 1.9711.

With `CC[C@H](C)[C@@H]1NC(=O)[C@H](Cc2c[nH]cn2)NC(=O)[C@@H](N)CSSC[C@@H](C(=O)O)NC(=O)[C@H](C)NC(=O)[C@H](CCC(N)=O)NC(=O)[C@H](C)NC(=O)[C@H](Cc2c[nH]cn2)NC(=O)[C@H](CC(C)C)NC1=O` [Sample 8, CHILHAQAC] (H-CHILHAQAC-OH; disulfide 1-9; N-terminus and C-terminus assumed), the “A450(-A620) After 24 hers” value in test [1] is given as 1.7885.

`CSCC[C@@H]1NC(=O)[C@H](CCCCN)NC(=O)[C@H]([C@@H](C)O)NC(=O)[C@H](CCC(N)=O)NC(=O)CNC(=O)[C@H](CC(C)C)NC(=O)[C@@H](N)CSSC[C@@H](C(=O)O)NC(=O)[C@H](CCCNC(=N)N)NC1=O` [Sample 3, CLGQTKMRC] (H-CLGQTKMRC-OH; disulfide 1-9; N-terminus and C-terminus assumed): the “A450(-A620) After 24 hers” value in the test on HeLa cells (HeLa S3) (HeLa S3, peptide 50 μM) turned out to be 0.1194; in the test on HeLa cells (HeLa S3) (HeLa S3, peptide 100 μM), 0.0997; in test [1], 1.7022. Moreover, the “antitumor activity (tumor cell proliferation-inhibiting activity), in words” value in test [1] is listed as “high antitumor activity”.

Consider EFEYFHPATFRL [Sample 20, EFEYFHPATFRL], for which the “A450(-A620) After 24 hers” value in test [1] worked out at 1.8115; in test [2] (N1E-115, peptide 50 μM), 0.5772; in test [2] (N1E-115, peptide 100 μM) it was 0.6481.

On to NMTTYPMHNNTVKKRTLRKNDRKKR [Sample 40], for which, in test [1], the “antitumor activity (tumor cell proliferation-inhibiting activity), in words” value is given as “high antitumor activity” and the “A450(-A620) After 24 hers” value stood at 1.5890.

With `CC(C)C[C@@H]1NC(=O)[C@@H]2CCCN2C(=O)[C@H](Cc2ccccc2)NC(=O)[C@H](C)NC(=O)[C@H](Cc2c[nH]c3ccccc23)NC(=O)[C@@H](N)CSSC[C@@H](C(=O)O)NC(=O)[C@H](Cc2c[nH]cn2)NC(=O)[C@H](Cc2c[nH]cn2)NC1=O` [Sample 5, CWAFPLHHC] (H-CWAFPLHHC-OH; disulfide 1-9; N-terminus and C-terminus assumed), the “A450(-A620) After 24 hers” value in the test on HeLa cells (HeLa S3) (HeLa S3, peptide 50 μM) amounted to 0.0955; in the test on HeLa cells (HeLa S3) (HeLa S3, peptide 100 μM) it was 0.0952; in test [1], 1.8994.

As to `CC[C@H](C)[C@@H]1NC(=O)[C@H](CCC(=O)O)NC(=O)[C@@H](N)CSSC[C@@H](C(=O)O)NC(=O)[C@H]([C@@H](C)O)NC(=O)[C@H](CCCNC(=N)N)NC(=O)[C@H](CCCCN)NC(=O)[C@H](C)NC(=O)[C@H](CO)NC1=O` [Sample 7, CEISAKRTC] (H-CEISAKRTC-OH; disulfide 1-9; N-terminus and C-terminus assumed), the “A450(-A620) After 24 hers” value was 0.1508 in the test on HeLa cells (HeLa S3) (HeLa S3, peptide 50 μM); 0.1081 with HeLa cells (HeLa S3) (HeLa S3, peptide 100 μM); 1.6822 in test [1].
